# Test results published in patent US20120295935A1, “MIXED AMINAL PHARMACEUTICAL COMPOSITIONS AND USES THEREOF” (priority 2010, published 2012).
# Entries after “also recorded” stand apart in the source; their conditions may differ.
# Experiments:
# MC3T3 cells [1] = test: mRNA expression levels by real-time PCR; format: cell-based, mouse; conditions: 1-100 nM for 1-24 h
# MC3T3 cells [2] = test: Phosphorylation of eIF2α kinases (PERK, PKR) and MAP kinases (p-38 MAPK, ERK1/2); format: cell-based, mouse; conditions: 10 nM, 1 h exposure
# Procedure: In response to T1h (1 h exposure at 10 nM), the level of phosphorylation of two eIF2α kinases (PERK and PKR), and two MAP kinases (p-38 MAPK and ERK1/2) was examined (FIG. 6).
# MC3T3 cells [3] = test: Cell proliferation and death; format: cell-based; conditions: 1 h incubation with 10 nM (mild ER stress)
# [4] = tested on: MC3T3 E1 osteoblast-like cells; test: Western blot of eIF2α-p, ATF4, CHOP and caspase 3 proteins in response to thapsigargin; format: cell-based, mouse
# Procedure: At higher doses of 10 and 100 nM, the levels of eIF2α-p and ATF4 proteins were elevated (FIG. 3A). Thapsigarin is known to induce apoptosis when administered above a threshold concentration.
# MC3T3 cells [5] = test: mRNA expression levels by real-time PCR; format: cell-based, mouse
# Procedure: Responses to Administration of Thapsigargin—Upregulation of transcription factors linked to bone formation as well as PERK: The effects of 10 nM thapsigargin on mRNA expression levels of ISR-linked genes (ATF4, ATF3, and CHOP) as well as genes involved in bone remodeling (Runx2, Osterix, and Rank1), were examined (FIG. 5). […] Out of 4 transcription factors (ATF4, ATF3, Runx2, and Osterix), the level of ATF4 mRNA was elevated 2-4 fold throughout the treatments. […] The mRNA level of type 1 collagen was elevated 5 h and 10 h for T1h (1 h exposure at 10 nM).
# Responses to Administration of Salubrinal—In vitro responses to salubrinal: In order to evaluate the effects of salubrinal, MC3T3 E1 osteoblast-like cells and MLO-A5 osteocyte cells (Barragan-Adjemian, C., et al., “Mechanism by which MLO-A5 late osteoblasts/early osteocytes mineralize in culture: similarities with mineralization of lamellar bone,” Calcif. Tissue Int. 79:340-353 (2006)) were incubated with salubrinal at 100 nM-50 μM for 1-24 h. The mRNA levels of the selected genes, TF4, ATF3, Osteocalcin (OCN), and CHOP, were determined by real-time PCR. […] In MC3T3 cells, for instance, the Osteocalcin mRNA level, which is regulated by ATF4 and Runx2 (Xiao et al. 2005), was elevated 11.8±0.2 fold at 10 μM salubrinal in 24 h.
structure (smiles),measurement,setting,value
C/C=C(/C)C(=O)O[C@H]1C(C)=C2[C@H]([C@@H]1OC(=O)CCCCCCC)[C@@](C)(OC(C)=O)C[C@H](OC(=O)CCC)[C@@]1(O)[C@H]2OC(=O)[C@@]1(C)O [thapsigargin],Osteocalcin mRNA level,MC3T3 cells [1],did not increase
same,p-ERK1/2 level,MC3T3 cells [2],not altered; also recorded: unchanged
same,p-PERK level,MC3T3 cells [2],elevated; also recorded: Activation
same,p-PKR level,MC3T3 cells [2],not altered; also recorded: unchanged
same,p-p38 MAPK level,MC3T3 cells [2],elevated; also recorded: Activation
same,numbers of live and dead cells (cell number or mortality),MC3T3 cells [3],does not alter; also recorded: no significant difference
same,CHOP protein level,[4]; 10 nM,started to increase after 3 h
same,Pro-caspase 3 level,[4]; 10 nM,not significantly altered
same,cleaved caspase 3 (active form) level,[4]; 10 nM,increased after 24 h
same,ATF4 protein level,[4]; 10 and 100 nM,elevated
same,eIF2α-p protein level,[4]; 10 and 100 nM,elevated
same,ATF4 protein level,[4]; lower dosages below 0.1 nM,no detectable upregulation
same,eIF2α-p protein level,[4]; lower dosages below 0.1 nM,no detectable upregulation
same,ATF3 mRNA level,MC3T3 cells [5]; 10 nM,100-1000 times
same,CHOP mRNA level,MC3T3 cells [5]; 10 nM,10-35 fold
same,Osterix mRNA,MC3T3 cells [5]; 10 nM,enhanced at 1 h
same,Runx2 mRNA increase,MC3T3 cells [5]; 10 nM,started at 3 h and peaked at 5 h
same,ATF4 mRNA level,"MC3T3 cells [5]; 10 nM, 1, 2 and 3 h exposures",2-4 fold
same,Rank1 mRNA,"MC3T3 cells [5]; 3 h for T2h and 10 h for T3h, 10 nM",significantly up
same,type 1 collagen mRNA level,MC3T3 cells [5]; 5 h and 10 h for T1h (1 h exposure at 10 nM),elevated
